In general, Ki refers to the dissociation constant of the complex between target and ligand, obtained from inhibition or displacement. Low readings indicate higher affinity, high ones lower affinity. A word on the EC50: it is the concentration giving half of the maximal effect. The term IC50 denotes the concentration that inhibits the measured activity by half. Higher therefore signals weaker potency. By microsomal CLint is commonly meant the rate of metabolic loss divided by the concentration.

The target in series [1] is T1, Beta-2 adrenergic receptor (Homo sapiens, UniProt P07550). Description: biochemical.
Description: Displacement of [125I]cyanopindolol from human recombinant beta2 adrenergic receptor expressed in CHO cells by filtration assay
Series [2] has as its target T1, Beta-2 adrenergic receptor.
Description: Agonist activity at human beta2 adrenergic receptor assessed as increase in cAMP level by whole cell assay
A further series addresses Albumin (Homo sapiens, UniProt P02768). Description: Binding affinity to human serum albumin by UV/HPLC analysis. As to conditions: isolated protein. Type of series: ADME.
The target in series [3] is Beta-2 adrenergic receptor (Cavia porcellus, UniProt Q8K4Z4).
Description: Agonist activity at beta2 adrenergic receptor in guinea pig tracheal strip assessed as inhibition of electrically-induced bronchocontractile response after 30 mins
The conditions of series [4]: pH 7.4.
Description: Chromatographic hydrophobicity index at 2 mg/ml at pH 7.4 by rapid gradient HPLC analysis
A short description of series [5]: Fraction unbound in human plasma. Type of series: ADME, cell-free.
Series [6] in a line: Intrinsic clearance in rat liver microsomes assessed per mg of protein at 1 uM after 10 to 30 mins by LC/MS analysis in presence of NADPH. Type of series: ADME, Microsome. Background: Liver microsomes are a subcellular fraction often used to study metabolism.
A short description of series [7]: Plasma protein binding in human at 1 to 2000 ng/mL after 3 hrs by liquid scintillation counting. Type of series: ADME, cell-free. Conditions: read-out: PPB (converted).
The species named for the next series is Cavia porcellus. Description: Inhibition of serotonin-induced bronchoconstriction in guinea pig assessed as intrinsic duration of bronchodilatory activity at ED80.
Series [8] can be described thus: Intrinsic clearance in rat liver microsomes assessed per mg of protein at 1 uM after 10 to 30 mins by LC/MS analysis in presence of UDP-glucuronic acid. The class given is ADME, Microsome.

Sequence of Albumin (P02768 whole entry): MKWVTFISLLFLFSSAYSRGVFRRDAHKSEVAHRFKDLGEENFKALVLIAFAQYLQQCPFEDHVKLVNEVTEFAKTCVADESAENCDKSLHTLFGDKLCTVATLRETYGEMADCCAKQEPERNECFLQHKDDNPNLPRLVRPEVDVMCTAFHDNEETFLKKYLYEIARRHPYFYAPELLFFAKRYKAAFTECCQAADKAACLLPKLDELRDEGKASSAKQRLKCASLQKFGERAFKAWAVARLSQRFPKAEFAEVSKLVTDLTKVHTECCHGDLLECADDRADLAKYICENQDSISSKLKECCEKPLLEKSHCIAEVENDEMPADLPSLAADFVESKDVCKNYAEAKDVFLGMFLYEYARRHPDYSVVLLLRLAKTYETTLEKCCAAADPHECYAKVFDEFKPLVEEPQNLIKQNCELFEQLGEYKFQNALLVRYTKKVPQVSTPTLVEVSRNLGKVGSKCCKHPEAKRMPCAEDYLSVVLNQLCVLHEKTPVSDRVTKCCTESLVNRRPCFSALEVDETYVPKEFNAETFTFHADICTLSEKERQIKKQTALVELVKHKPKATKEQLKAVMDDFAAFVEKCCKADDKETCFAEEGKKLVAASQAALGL
T1 sequence (P07550 whole entry): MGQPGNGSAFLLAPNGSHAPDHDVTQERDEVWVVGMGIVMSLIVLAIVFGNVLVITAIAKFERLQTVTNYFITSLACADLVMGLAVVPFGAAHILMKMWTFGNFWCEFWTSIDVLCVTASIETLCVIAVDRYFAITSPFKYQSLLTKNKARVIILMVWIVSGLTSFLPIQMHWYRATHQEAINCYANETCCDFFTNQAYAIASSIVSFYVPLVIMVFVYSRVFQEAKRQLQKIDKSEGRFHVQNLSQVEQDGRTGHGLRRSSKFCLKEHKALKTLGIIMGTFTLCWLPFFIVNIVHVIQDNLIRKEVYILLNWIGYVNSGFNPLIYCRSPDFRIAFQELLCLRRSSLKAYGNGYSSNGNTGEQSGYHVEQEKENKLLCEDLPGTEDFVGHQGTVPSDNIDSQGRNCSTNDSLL
Sequence of Beta-2 adrenergic receptor (Cavia porcellus, UniProt Q8K4Z4) (Q8K4Z4 whole entry): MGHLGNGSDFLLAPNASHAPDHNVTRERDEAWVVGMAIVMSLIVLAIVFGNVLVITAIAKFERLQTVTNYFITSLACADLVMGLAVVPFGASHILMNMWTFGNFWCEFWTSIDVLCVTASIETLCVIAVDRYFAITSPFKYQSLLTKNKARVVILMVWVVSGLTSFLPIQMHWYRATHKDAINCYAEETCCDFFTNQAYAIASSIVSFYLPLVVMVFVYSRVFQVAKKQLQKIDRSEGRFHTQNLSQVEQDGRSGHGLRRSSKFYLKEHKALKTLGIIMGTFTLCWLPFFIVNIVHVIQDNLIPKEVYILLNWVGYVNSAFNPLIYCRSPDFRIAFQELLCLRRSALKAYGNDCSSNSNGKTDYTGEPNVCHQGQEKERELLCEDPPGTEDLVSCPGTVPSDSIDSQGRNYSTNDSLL

The compound `O=c1ccc2c([C@@H](O)CNC3Cc4ccccc4C3)ccc(O)c2[nH]1` yielded a Ki in series [1] of 218 nM. The compound further registered an EC50 in series [2] of 5 nM. Also, the Activity on Albumin stood at 63.8%. The IC50 in [3] is 0.83 nM. Also, the CHI in [4] worked out at 38.2.

In series [1], `Cc1cc2c(cc1C)CC(NC[C@H](O)c1ccc(O)c3[nH]c(=O)ccc13)C2` gave a Ki of 522 nM. The EC50 in [2] was determined as 39 nM. This compound displayed an Activity on Albumin of 89.8%. In series [3], this compound yielded a concentration for half-maximal inhibition (IC50) of 48 nM. In series [4], this compound returned a CHI of 54.9.

For the compound `COc1cc2c(cc1OC)CC(NC[C@H](O)c1ccc(O)c3[nH]c(=O)ccc13)C2`, in [1], the affinity corresponds to a Ki of 342 nM. This compound also came in with a 50% effective concentration (EC50) in [2] of 18 nM. The Activity at Albumin turned out to be 59.5%. The same compound registered an IC50 in series [3] of 2.3 nM. In series [4], the CHI is 32.4.

In series [1], `CCc1ccc(CC)c2c1CC(NC[C@H](O)c1ccc(O)c3[nH]c(=O)ccc13)C2` registered a Ki of 692 nM. The EC50 in [2] came to 115 nM. At Albumin, the Activity was determined as 94%. The same compound gave an IC50 in series [3] of 75 nM. This compound also came in with a CHI in [4] of 62.9.

As for `CCc1cc2c(cc1CC)CC(NC[C@H](O)c1ccc(O[C@@H]3O[C@H](C(=O)O)[C@@H](O)[C@H](O)[C@H]3O)c3[nH]c(=O)ccc13)C2`, the Ki in [1] is > 10000 nM.

The compound `CCCc1cc2c(cc1CCC)CC(NC[C@H](O)c1ccc(O)c3[nH]c(=O)ccc13)C2` came in with a Ki in [1] of 119 nM. This compound had an EC50 in series [2] of 14 nM. Further, on Albumin, the Activity came to 98.6%. The compound further returned an IC50 in series [3] of 20 nM. Moreover, the CHI in series [4] is recorded as > 70.

On to `CCCCc1cc2c(cc1CCCC)CC(NC[C@H](O)c1ccc(O)c3[nH]c(=O)ccc13)C2`, for which, in [1], the Ki is 112 nM. Further, it took 25 nM to reach a half-maximal effect in series [2] (EC50). This compound also yielded an Activity at Albumin of 99.5%. Further, the IC50 in [3] was > 1000 nM. In addition, the CHI in [4] is recorded as > 70.

Turning to `CC(C)(C)NCC(O)c1ccc(O)c(CO)c1` (centres undefined) [ALBUTEROL], on Albumin, the Activity is 29.9%. This compound also displayed a CHI in [4] of 21.

`COc1ccc(C[C@@H](C)NC[C@H](O)c2ccc(O)c3[nH]c(=O)ccc23)cc1` [CARMOTEROL] returned a Ki in [1] of 3.19 nM. Moreover, the midpoint of the response in [2], the EC50, lay at 0.76 nM. The same compound displayed an Activity at Albumin of 57.1%. This compound displayed an IC50 in [3] of 0.3 nM. The same compound gave a CHI in [4] of 37.7.

In the case of `CCc1cc2c(cc1CC)CC(NC[C@H](O)c1ccc(O)c3[nH]c(=O)ccc13)C2` [INDACATEROL], the Ki in series [1] was 76 nM. A half-maximal effect in [2] (EC50) was put at 11 nM. For the same compound, the fraction unbound in series [5] amounted to 0.043. Besides, the microsomal CLint at 1 µM worked out at 76 µL/min/mg in [6] and 378 µL/min/mg in [8]. On Albumin, this compound yielded an Activity of 95.7%. The fraction unbound at 3 h in series [7] is 0.049. Further, the Time in the series filed under Cavia porcellus amounted to 24 h. For the same compound, the CHI in [4] came to 59.7.

Consider `OCc1cc(C(O)CNCCCCCCOCCCCc2ccccc2)ccc1O` (centres undefined) [SALMETEROL], for which the Activity at Albumin turned out to be 91.1%. The compound further returned a CHI in series [4] of 56.7.

Values taken from ChEMBL document CHEMBL1157120, “The identification of indacaterol as an ultralong-acting inhaled beta2-adrenoceptor agonist” (J Med Chem, 2010).
